Measured values: the supplement of paper PMC10307832

What was measured:
Experiment in all cases: relative viability (nuclei count vs DMSO), 5 days (fraction); higher = more cells survive
Crizotinib + Luminespib = compound: C[C@@H](Oc1cc(-c2cnn(C3CCNCC3)c2)cnc1N)c1c(Cl)ccc(F)c1Cl [Crizotinib] + CCNC(=O)c1noc(-c2cc(C(C)C)c(O)cc2O)c1-c1ccc(CN2CCOCC2)cc1 [Luminespib] (partner 0.01 µM)
In short: (§1)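 Lung cancer cell lines, seeded in 1536-well plates, were treated the following day by pin tool with a single drug or with five library-drug doses (not always all listed) in √10 steps on top of a fixed anchor-drug dose. Cells were fixed and nuclei stained in one step after 5 days, and nuclei were counted. Relative viability is the nuclei count for treated wells divided by that for vehicle wells, reported as medians of duplicate plates.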

Crizotinib + Linsitinib = compound: C[C@@H](Oc1cc(-c2cnn(C3CCNCC3)c2)cnc1N)c1c(Cl)ccc(F)c1Cl [Crizotinib] + C[C@]1(O)C[C@@H](c2nc(-c3ccc4ccc(-c5ccccc5)nc4c3)c3c(N)nccn32)C1 [Linsitinib] (partner 1 µM)
In short: as §1

Carfilzomib = compound: CC(C)C[C@H](NC(=O)[C@H](CCc1ccccc1)NC(=O)CN1CCOCC1)C(=O)N[C@@H](Cc1ccccc1)C(=O)N[C@@H](CC(C)C)C(=O)[C@@]1(C)CO1 [Carfilzomib]
In short: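 Acceptance criteria were a control CV below 25% and at least one doubling per plate. Lung cancer cell lines in 1536-well plates got five library-drug doses (not always all listed) √10 apart by pinning and were left 5 days with no medium change. Viability divides treated-well nuclei by vehicle-well nuclei and is the median across plates. Nuclei were counted by MetaXpress from 4× Hoechst images.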

| Cell Line | relative viability (Crizotinib + Luminespib; first compound 0.01 µM) | relative viability (Crizotinib + Luminespib; first compound 0.03162 µM) | relative viability (Crizotinib + Luminespib; first compound 0.1 µM) | relative viability (Crizotinib + Luminespib; first compound 1 µM) | relative viability (Crizotinib + Linsitinib; first compound 0.01 µM) | relative viability (Crizotinib + Linsitinib; first compound 0.03162 µM) | relative viability (Crizotinib + Linsitinib; first compound 0.1 µM) | relative viability (Crizotinib + Linsitinib; first compound 0.3162 µM) | relative viability (Crizotinib + Linsitinib; first compound 1 µM) | relative viability (Carfilzomib; 0.001 µM) | relative viability (Carfilzomib; 0.003162 µM) | relative viability (Carfilzomib; 0.01 µM) | relative viability (Carfilzomib; 0.03162 µM) | relative viability (Carfilzomib; 0.1 µM) | relative viability (Crizotinib + Luminespib; first compound 0.3162 µM) |
| --- | --- | --- | --- | --- | --- | --- | --- | --- | --- | --- | --- | --- | --- | --- | --- |
| NCI-H441 | 0.273 | 0.315 | 0.399 | 0.391 | 0.564 | 0.498 | 0.575 | 0.382 | 0.551 | 1.2 | 1.19 | 0.432 | 0.151 | 0.118 |  |
| ABC-1 |  | 0.865 | 0.628 |  | 0.95 | 0.843 | 1.12 | 1.09 |  | 0.92 | 0.75 | 0.39 | 0.221 | 0.291 | 0.496 |
| NCI-H2170 | 0.914 | 0.806 | 0.649 | 0.511 |  |  |  |  |  | 0.931 | 0.99 | 1.07 | 0.969 | 0.443 | 0.606 |
| NCI-H1944 | 0.671 | 0.648 | 0.646 | 0.777 | 1.11 | 1.07 | 1.2 | 1.18 | 1.21 | 0.907 | 1.03 | 0.927 | 1 | 0.343 | 0.872 |
| PC-3 [JPC-3] | 0.727 | 0.649 | 0.741 | 0.78 | 0.935 | 0.977 | 1.04 | 0.9 | 0.973 | 1 | 1.07 | 1.09 | 0.896 | 0.39 | 0.678 |
| NCI-H1648 |  |  |  |  |  |  |  |  |  | 0.845 | 1.11 | 1.14 | 0.725 | 0.416 |  |
| NCI-H1975 | 0.144 | 0.148 | 0.167 | 0.178 | 0.926 | 1.05 | 0.91 | 1.07 | 1.01 | 0.946 | 1.05 | 0.808 | 0.146 | 0.137 | 0.223 |
| NCI-H650 | 0.726 | 0.75 |  | 0.942 | 0.858 | 0.868 |  | 0.596 | 0.894 | 0.811 | 1.03 | 0.886 | 0.751 | 0.196 | 0.798 |
| NCI-H1623 |  | 0.469 | 0.502 | 0.5 |  |  |  |  |  | 0.972 | 1.12 | 1.04 | 0.885 | 0.33 | 0.486 |
| NCI-H1755 | 0.428 | 0.482 | 0.445 | 0.266 | 0.872 |  | 1.07 | 0.964 | 0.978 | 1.01 | 1.02 | 1 | 1.01 | 0.788 | 0.554 |
| NCI-H1666 | 0.864 | 1 | 1.09 | 0.999 | 0.825 | 0.877 | 0.774 | 0.871 | 0.665 | 1.02 | 1.07 | 1.06 | 0.981 | 0.437 | 0.991 |
| NCI-H1792 | 0.46 | 0.39 | 0.529 | 0.553 | 0.519 | 0.558 | 0.586 | 0.473 | 0.559 | 0.827 | 0.962 | 0.957 | 0.658 | 0.388 |  |
| CAL-12T | 0.297 | 0.339 | 0.232 | 0.201 | 0.753 | 0.904 | 0.708 | 0.748 |  | 0.933 | 1.19 | 1.1 | 0.736 | 0.138 |  |
| EPLC-272H | 0.236 | 0.343 | 0.197 | 0.577 | 1.18 | 1.11 | 1.17 | 1.14 | 1.27 | 0.845 | 1.22 | 0.834 | 0.242 | 0.0648 | 0.262 |
| IA-LM |  |  |  |  | 0.611 | 0.748 | 0.649 | 0.507 | 0.609 | 0.884 | 0.879 | 0.94 | 0.107 | 0.0275 |  |
| PC-14 | 0.156 | 0.152 | 0.183 | 0.168 | 0.913 |  | 0.974 | 0.905 | 1.02 | 1.03 | 1.13 | 1.06 | 0.29 | 0.0816 | 0.186 |
| NCI-H1703 |  |  |  |  | 0.773 | 0.852 | 0.727 | 0.777 | 0.654 | 0.839 | 1.22 | 0.439 | 0.132 | 0.128 |  |
| NCI-H1437 | 1.06 | 1.15 | 1.14 | 1.22 | 0.996 |  | 1.03 | 0.996 | 1.04 | 0.952 | 1.07 | 1.04 | 0.884 | 0.358 | 1.17 |
| NCI-H358 | 0.464 | 0.431 | 0.488 | 0.334 | 0.663 | 0.658 | 0.744 | 0.779 | 0.899 | 0.926 | 1.03 | 0.953 | 0.154 | 0.133 | 0.416 |
| LK-2 | 0.173 | 0.188 | 0.188 | 0.201 | 0.431 | 0.523 | 0.541 | 0.458 | 0.709 | 0.937 | 1.31 | 0.96 | 0.205 | 0.201 |  |
| H3255 | 0.928 | 0.971 | 0.831 |  | 0.806 | 0.924 | 0.974 | 0.841 | 0.962 | 0.973 | 1.09 | 1.11 | 0.718 | 0.373 | 0.743 |
| NCI-H1355 | 0.709 | 0.749 | 0.644 | 0.783 | 0.869 | 0.82 | 0.811 | 0.799 | 0.867 | 0.876 | 1.04 | 1.01 | 0.946 | 0.18 | 0.641 |
| LCLC-103H | 0.856 | 0.987 | 0.856 | 1.02 | 0.985 | 1.07 | 1 | 1.15 | 1.3 | 0.923 | 0.974 | 0.998 | 0.984 | 0.459 |  |
| NCI-H838 | 0.289 | 0.275 | 0.312 | 0.254 | 0.938 | 1.05 |  | 0.882 | 1.01 | 0.982 | 1.05 | 0.951 | 0.875 | 0.151 | 0.326 |
